Test results: US20260114446A1, “Compositions, Methods and Devices for Control and Monitoring Insects” (Agriculture Victoria Services Pty Ltd, priority 2023, published 2026)

Key:
Assay type in all cases: in vivo
[1] = tested on: Carpophilus truncatus; assay: Field experiment of pheromone lure septa in an almond orchard (Example 3), C. truncatus catches; conditions: septa in bucket traps with co-attractant solution (45% ethanol, isopentyl alcohol) and Dichlorvos strip; 10 replicates; 6 weeks, samples fortnightly; p<0.001
Protocol: A field experiment was designed to test the attractancy of the previously described C. truncatus Pheromone 2 under field conditions and the pheromonal (attractant) activity of newly identified Pheromone 3. […] All pheromones were tested together with a co-attractant mixture in the form of an aqueous ethanol and isopentyl alcohol solution, which acts synergistically to elicit a strong behavioural response in C. truncatus.
Pheromone test lures were loaded on white Precision Seal® rubber septa (8 mm OD, Sigma Aldrich product code: Z553913) with butylated hydroxytoluene used an antioxidant. The quantities of individual compounds applied on the septa were determined by SPME-GC-MS analyses of test septa at days 1 and 3 to produce the two pheromones in approximately equal ratios. The quantity of antioxidant was chosen based on the existing literature as 10% of the ratio of the dominant pheromone (Table 2). Hexane dilutions of the neat pheromones were prepared, and desired quantities loaded onto the septa. […]
The field trial was carried out from December 2021 in a commercial almond orchard located near Mildura, Victoria, Australia. […] Beetles present in different traps were identified and counted under a stereomicroscope. […]
Field data were analysed using a Generalized Linear Mixed Model (GLMM) fitted with a negative binomial distribution using the glmmTMB package (Brooks et al. 2019). […]

[2] = tested on: Carpophilus truncatus; assay: Two-week field trial of lure treatments (Example 4), C. truncatus catches; conditions: 20 repeats per treatment, with co-attractant, high beetle populations
Protocol: (§1) A short trial was carried out over two weeks. Treatments were randomised and replicated in 10 tree rows with approximately 50 m spacing between traps (10 rows×2 treatments—20 repeats per treatment; 3 treatments of 20 repeats is 60 traps used). The treatments are shown in Table 3: Data was analysed in a similar way to Example 3 using GLMM with trap catches as response variable, lure treatment as fixed factor and row and column as random (spatial features). Turkey's adjusted post hoc tests for multiple comparisons of a family of three estimates. The results of the mixed model are: Wald χ2=[…], p=2.64 10^−14.

[3] = tested on: other Carpophilus species; assay: Two-week field trial of lure treatments (Example 4), catches of other Carpophilus species; conditions: 20 repeats per treatment, with co-attractant
Protocol: as §1

Structure (SMILES): C/C=C(C)/C=C(C)/C=C(C)/C=C/CC [Phero 2, (E,E,E,E)-3,5,7-trimethyl-2,4,6,8-undecatetraene]
- C. truncatus beetle catches [1]: caught significantly more beetles than the commercial tri-species septa

Structure (SMILES): CCCCCCCCCCCCCC=O [Phero 3, tetradecanal]
- C. truncatus beetles caught [2]: caught significantly less C. truncatus and other Carpophilus species beetles than Phero 2 and Phero 2+Phero 3
- Other Carpophilus species beetles caught [3]: caught significantly less C. truncatus and other Carpophilus species beetles than Phero 2 and Phero 2+Phero 3
